Experimental data published in article PMC8161390, “Salinity Alters Toxicity of Commonly Used Pesticides in a Model Euryhaline Fish Species (Menidia beryllina)” (Toxics, 2021).
Converted amounts (≈) assume the structure as drawn. Where two headings read alike, the source gives them in different places.

Assays:
[1] = Inland Silverside embryo-to-larva 12-day exposure bioassay (mortality, dose-response); details: Menidia beryllina (Inland Silverside), in vivo, <24 hpf embryos to 96 hph larvae, nominal concentrations
Experimental: (§1) Inland Silverside embryos were removed from the spawning substrate, assessed for fertilization with a VWR VistaVision Dissecting Scope (VWR International, Radnor, PA, USA), and randomly placed in exposure wells with 1 mL of clean artificial seawater (ASW) made from reverse osmosis water and Instant Ocean Sea Salt (Spectrum Brands, Blacksburg, VA, USA). Once all well plates (Supplemental Material and Video S1) were loaded, each test was initiated by pouring the appropriate exposure solution into the well plate until embryos were submerged in 8 mL of exposure solution. Organisms were exposed from <24 h post fertilization (hpf) as embryos to 96 h post hatch (hph) larvae for a total exposure period of 12 days. […] After hatching, fish larvae, which still had their yolk sacs, were fed Gemma Microdiet (Skretting, Westbrook, ME, USA) once per day and were allowed to feed for at least two hours prior to water changes. […] Temperature, pH, salinity, and dissolved oxygen were measured daily before and after water changes using a YSI Professional Plus Quatro water quality meter (YSI Incorporated, Yellow Springs, OH, USA) and API Ammonia Test Kit and can be found in Table S1.
(§2) This suite of chosen contaminants represents commonly used pesticides with a range of log KOW values, water solubilities, and target organs. Six concentrations (Table 1), including a solvent control, were assessed per test to determine the appropriate dose–response relationships. Initial test concentrations were determined from existing mortality data from the United State EPA ECOTOX database. Where testing on saltwater species was not available, freshwater data were used to supplement. […] The fourth concentration was selected based off existing mortality data and increased by one magnitude to the fifth concentration to ensure mortality. All lower concentrations were decreased by one subsequent magnitude to ensure an appropriate dose response could be achieved.
(§3) Chemical stock solutions were made at the start of each test from which new exposure solutions were made daily in ASW immediately prior to water changes. There were six replicates per concentration and two organisms per replicate. […] At the end of the exposure period, the final survival data were recorded, and larval fish were humanely sacrificed. Exposures were approved and conducted under the Oregon State University Institutional Animal Care and Use Committee (IACUC) protocol #0035.
(§4) Statistical analysis was conducted in R version 4.0 (Vienna, Austria) and R Studio version 1.3.1093 (Boston, MA, US). The dose–response analysis consisted of fitting two-parameter log-logistic models to all seven compounds at both salinities (14 fits in total) using maximum likelihood optimization in the package drc version 3.0-1 [42]. […] In the Monte Carlo procedure, the salinity treatments for all of the replicates in the dataset were permuted (keeping the sample sizes for each salinity the same), then new dose–response curves were fit to each salinity treatment. The p-value testing whether the observed difference in LC10 and LC50 values was greater than that expected by random chance was calculated as the proportion of Monte Carlo simulations in which the difference in LC values was greater than the original observed difference. […] All values are reported as the mean ± standard error. All statistical analysis and dose–response curves were made and reported with nominal concentrations.

[2] = system: Inland Silverside (Menidia beryllina); experiment: as above; details: <24 hpf embryos to 96 hph larvae, 12 days, nominal concentrations; for 5 PSU LC10: 5 PSU salinity; for 15 PSU LC10: 15 PSU salinity
Experimental: as §1, §2, §3, §4

[3] = cited from earlier work
[4] = parameters: method as in earlier work; details: cited from earlier work
[5] = system: Rainbow Trout (Oncorhynchus mykiss); details: freshwater; 96-h acute; range of minimum to maximum reported LC50 values; ref U.S. EPA ECOTOX database; cited from earlier work
[6] = parameters: method as in PMID 18829159; details: reported environmental persistence; cited from earlier work
[7] = irradiation of a 300 W mercury bulb, cited from earlier work

SMILES: Cc1c(COC(=O)[C@@H]2[C@H](/C=C(\Cl)C(F)(F)F)C2(C)C)cccc1-c1ccccc1 (racemic) [Bifenthrin, bifenthrin]
- LC50 at 12 days ([1]; 5 PSU LC50, 5 PSU salinity): 0.00016 µg/mL (≈ 0.000378 µM)
- LC50 at 12 days ([1]; 15 PSU LC50, 15 PSU salinity): 0.00012 µg/mL (≈ 0.000284 µM)
- 5 PSU LC10 [2]: 0.0227 ng/mL
- 15 PSU LC10 [2]: 0.00533 ng/mL
- log KOW [3]: 6.6
- Water Solubility [4]: 0.1 mg/L
- FW LC50 [5]: 0.00015 to 0.0147 mg/L

SMILES: CCOP(=S)(OCC)Oc1nc(Cl)c(Cl)cc1Cl [Chlorpyrifos, chlorpyrifos]
- LC50 at 12 days ([1]; 5 PSU LC50, 5 PSU salinity): 0.00803 µg/mL (≈ 0.0229 µM)
- LC50 at 12 days ([1]; 15 PSU LC50, 15 PSU salinity): 0.0024 µg/mL (≈ 0.00685 µM)
- 5 PSU LC10 [2]: 0.137 ng/mL
- 15 PSU LC10 [2]: 0.0393 ng/mL
- log KOW [3]: 4.7
- FW LC50 [5]: <0.001 to 0.301 mg/L

SMILES: Nc1c(Cl)cc([N+](=O)[O-])cc1Cl [Dicloran, dicloran]
- log KOW [3]: 2.8
- Water Solubility [4]: 6.3 mg/L

SMILES: CCCCC(C#N)(Cn1cncn1)c1ccc(Cl)cc1 (centres unmarked) [Myclobutanil, myclobutanil]
- LC50 at 12 days ([1]; 5 PSU LC50, 5 PSU salinity): 3.76 µg/mL (≈ 13 µM)
- LC50 at 12 days ([1]; 15 PSU LC50, 15 PSU salinity): 1.55 µg/mL (≈ 5.37 µM)
- log KOW [3]: 2.8
- Water Solubility [4]: 132 mg/L
- FW LC50 [5]: 4.2 to 5.27 mg/L

SMILES: C[n+]1ccc(-c2cc[n+](C)cc2)cc1 [Paraquat, paraquat dichloride hydrate]
- LC50 at 12 days ([1]; 5 PSU LC50, 5 PSU salinity): 37.5 µg/mL
- LC50 at 12 days ([1]; 15 PSU LC50, 15 PSU salinity): 18.1 µg/mL
- 5 PSU LC10 [2]: 54.7 ng/mL
- 15 PSU LC10 [2]: 24.5 ng/mL
- log KOW [3]: −4.5
- Water Solubility [4]: 620000 mg/L
- environmental half-life [6]: around two
- FW LC50 [5]: 15.0 to 38.68 mg/L

SMILES: CCCC(Cn1cncn1)c1ccc(Cl)cc1Cl (centres unmarked) [Penconazole, penconazole]
- LC50 at 12 days ([1]; 5 PSU LC50, 5 PSU salinity): 0.107 µg/mL (≈ 0.377 µM)
- LC50 at 12 days ([1]; 15 PSU LC50, 15 PSU salinity): 0.0202 µg/mL (≈ 0.0711 µM)
- 5 PSU LC10 [2]: 0.235 ng/mL
- 15 PSU LC10 [2]: 0.0244 ng/mL
- log KOW [3]: 3.7

SMILES: CC(C)(C)C(=O)C(Oc1ccc(Cl)cc1)n1cncn1 (centres unmarked) [Triadimefon, triadimefon]
- log KOW [3]: 3.2
- Water Solubility [4]: 64 mg/L
- half-life ([7]; distilled water): 54 min
- half-life ([7]; seawater): 178 min

SMILES: CC1(C)C(C=C(Cl)Cl)C1C(=O)OCc1cccc(Oc2ccccc2)c1 (centres unmarked) [permethrin]
- log KOW ([3]; values quoted in discussion of Delta smelt study): 6.9
